# Data taken from ChEMBL document CHEMBL3885861, “Open TG-GATES”.
# Species: Rattus norvegicus
# Assay: Open TG-GATES - Regimen: Single
# Assay type: toxicity, organism-based, Sprague-Dawley
# Parameters: regimen Single, gender Male, age 6 weeks
# Conditions: in vivo, po, 100 mg/kg, route gavage, dose level Low; for APTT / Bas / Eos / Fbg / Hb / Ht / Lym / MCH / MCHC / MCV / Mono / Neu / PT / Plat / RBC / Ret / WBC: tissue Blood; for KIDNEY_L / KIDNEY_R / KIDNEY_TOTAL: tissue Kidney; for LIVER: tissue Liver; for A/G / ALP / ALT / AST / BUN / CRE / Ca / Cl / DBIL / GLC / IP / K / LDH / Na / PL / RALB / TBIL / TC / TG / TP / gamma-GTP: tissue Plasma
structure (smiles),measurement,setting,value
O=C(O)c1cc(/N=N/c2ccc(S(=O)(=O)Nc3ccccn3)cc2)ccc1O [SULFASALAZINE],TERMINAL_BW,3 h,211 g
same,APTT,3 h,19.2 s
same,Bas,3 h,0%
same,Eos,3 h,1%
same,Fbg,3 h,216.6 mg/dL
same,Hb,3 h,13 g/dL
same,Ht,3 h,38.4%
same,Lym,3 h,77.2%
same,MCH,3 h,21.5 pg
same,MCHC,3 h,33.9%
same,MCV,3 h,63.4 fL
same,Mono,3 h,2.4%
same,Neu,3 h,18.6%
same,PT,3 h,12.5 s
same,Plat,3 h,129.8 x10_4/uL
same,RBC,3 h,605.4 x10_4/ul
same,Ret,3 h,7.1%
same,WBC,3 h,92.9 x10_2/uL
same,KIDNEY_L,3 h,1 g
same,KIDNEY_R,3 h,0.9 g
same,KIDNEY_TOTAL,3 h,1.9 g
same,LIVER,3 h,10.2 g
same,A/G,3 h,1.6
same,ALP,3 h,984.8 IU/L
same,ALT,3 h,37.4 IU/L
same,AST,3 h,69.4 IU/L
same,BUN,3 h,11 mg/dL
same,CRE,3 h,0.4 mg/dL
same,Ca,3 h,10.6 mg/dL
same,Cl,3 h,102.2 meq/L
same,DBIL,3 h,0.068 mg/dL
same,GLC,3 h,201.8 mg/dL
same,IP,3 h,9.5 mg/dL
same,K,3 h,3.7 meq/L
same,LDH,3 h,166.6 IU/L
same,Na,3 h,140.8 meq/L
same,PL,3 h,148 mg/dL
same,RALB,3 h,3.3 g/dL
same,TBIL,3 h,0.1 mg/dL
same,TC,3 h,80 mg/dL
same,TG,3 h,59.4 mg/dL
same,TP,3 h,5.4 g/dL
same,gamma-GTP,3 h,1.2 IU/L
same,TERMINAL_BW,6 h,210.8 g
same,APTT,6 h,19 s
same,Bas,6 h,0%
same,Eos,6 h,1%
same,Fbg,6 h,218.6 mg/dL
same,Hb,6 h,13.2 g/dL
same,Ht,6 h,38.5%
same,Lym,6 h,73.6%
same,MCH,6 h,21.9 pg
same,MCHC,6 h,34.3%
same,MCV,6 h,63.9 fL
same,Mono,6 h,3%
same,Neu,6 h,21.2%
same,PT,6 h,12.7 s
same,Plat,6 h,111 x10_4/uL
same,RBC,6 h,603.2 x10_4/ul
same,Ret,6 h,7.2%
same,WBC,6 h,89.7 x10_2/uL
same,KIDNEY_L,6 h,1 g
same,KIDNEY_R,6 h,1 g
same,KIDNEY_TOTAL,6 h,2 g
same,LIVER,6 h,9.7 g
same,A/G,6 h,1.6
same,ALP,6 h,986.4 IU/L
same,ALT,6 h,35.8 IU/L
same,AST,6 h,68.4 IU/L
same,BUN,6 h,10.2 mg/dL
same,CRE,6 h,0.4 mg/dL
same,Ca,6 h,10.6 mg/dL
same,Cl,6 h,101.8 meq/L
same,DBIL,6 h,0.066 mg/dL
same,GLC,6 h,193.6 mg/dL
same,IP,6 h,9.7 mg/dL
same,K,6 h,3.9 meq/L
same,LDH,6 h,198.6 IU/L
same,Na,6 h,140.2 meq/L
same,PL,6 h,148 mg/dL
same,RALB,6 h,3.3 g/dL
same,TBIL,6 h,0.1 mg/dL
same,TC,6 h,76.6 mg/dL
same,TG,6 h,61.2 mg/dL
same,TP,6 h,5.4 g/dL
same,gamma-GTP,6 h,1.6 IU/L
same,TERMINAL_BW,9 h,204.7 g
same,APTT,9 h,19.3 s
same,Bas,9 h,0%
same,Eos,9 h,1%
same,Fbg,9 h,225.8 mg/dL
same,Hb,9 h,13.2 g/dL
same,Ht,9 h,38.8%
same,Lym,9 h,82.4%
same,MCH,9 h,21.4 pg
same,MCHC,9 h,34%
same,MCV,9 h,63 fL
same,Mono,9 h,3.4%
same,Neu,9 h,12.4%
same,PT,9 h,12.8 s
same,Plat,9 h,113 x10_4/uL
same,RBC,9 h,616.6 x10_4/ul
same,Ret,9 h,6.7%
same,WBC,9 h,76.6 x10_2/uL
same,KIDNEY_L,9 h,1 g
same,KIDNEY_R,9 h,1 g
same,KIDNEY_TOTAL,9 h,2 g
same,LIVER,9 h,8.7 g
same,A/G,9 h,1.6
same,ALP,9 h,932.8 IU/L
same,ALT,9 h,35.4 IU/L
same,AST,9 h,63.8 IU/L
same,BUN,9 h,9.4 mg/dL
same,CRE,9 h,0.3 mg/dL
same,Ca,9 h,10.6 mg/dL
same,Cl,9 h,102.2 meq/L
same,DBIL,9 h,0.068 mg/dL
same,GLC,9 h,194.2 mg/dL
same,IP,9 h,10.2 mg/dL
same,K,9 h,3.8 meq/L
same,LDH,9 h,198.8 IU/L
same,Na,9 h,139.8 meq/L
same,PL,9 h,145.4 mg/dL
same,RALB,9 h,3.3 g/dL
same,TBIL,9 h,0.1 mg/dL
same,TC,9 h,83 mg/dL
same,TG,9 h,41.6 mg/dL
same,TP,9 h,5.5 g/dL
same,gamma-GTP,9 h,1.2 IU/L
same,TERMINAL_BW,24 h,221.5 g
same,APTT,24 h,17.9 s
same,Bas,24 h,0%
same,Eos,24 h,1%
same,Fbg,24 h,234.6 mg/dL
same,Hb,24 h,13.2 g/dL
same,Ht,24 h,38.5%
same,Lym,24 h,81%
same,MCH,24 h,21.2 pg
same,MCHC,24 h,34.4%
same,MCV,24 h,61.8 fL
same,Mono,24 h,2.8%
same,Neu,24 h,13.8%
same,PT,24 h,12.5 s
same,Plat,24 h,123 x10_4/uL
same,RBC,24 h,624 x10_4/ul
same,Ret,24 h,6.3%
same,WBC,24 h,86.3 x10_2/uL
same,KIDNEY_L,24 h,1 g
same,KIDNEY_R,24 h,1 g
same,KIDNEY_TOTAL,24 h,2 g
same,LIVER,24 h,10.5 g
same,A/G,24 h,1.6
same,ALP,24 h,1020.4 IU/L
same,ALT,24 h,40.4 IU/L
same,AST,24 h,64.6 IU/L
same,BUN,24 h,15.2 mg/dL
same,CRE,24 h,0.4 mg/dL
same,Ca,24 h,10.8 mg/dL
same,Cl,24 h,101.4 meq/L
same,DBIL,24 h,0.092 mg/dL
same,GLC,24 h,184 mg/dL
same,IP,24 h,7.7 mg/dL
same,K,24 h,4.1 meq/L
same,LDH,24 h,213 IU/L
same,Na,24 h,139.8 meq/L
same,PL,24 h,158.2 mg/dL
same,RALB,24 h,3.5 g/dL
same,TBIL,24 h,0.1 mg/dL
same,TC,24 h,79.6 mg/dL
same,TG,24 h,88.8 mg/dL
same,TP,24 h,5.7 g/dL
same,gamma-GTP,24 h,1.6 IU/L
